Biological target: T1, human α2A adrenergic receptor (Homo sapiens, UniProt P08913)
T1 construct: expressed in transfected cells; host or cells: CHO (Chinese hamster ovary) cells
T1 sequence (P08913 1-465): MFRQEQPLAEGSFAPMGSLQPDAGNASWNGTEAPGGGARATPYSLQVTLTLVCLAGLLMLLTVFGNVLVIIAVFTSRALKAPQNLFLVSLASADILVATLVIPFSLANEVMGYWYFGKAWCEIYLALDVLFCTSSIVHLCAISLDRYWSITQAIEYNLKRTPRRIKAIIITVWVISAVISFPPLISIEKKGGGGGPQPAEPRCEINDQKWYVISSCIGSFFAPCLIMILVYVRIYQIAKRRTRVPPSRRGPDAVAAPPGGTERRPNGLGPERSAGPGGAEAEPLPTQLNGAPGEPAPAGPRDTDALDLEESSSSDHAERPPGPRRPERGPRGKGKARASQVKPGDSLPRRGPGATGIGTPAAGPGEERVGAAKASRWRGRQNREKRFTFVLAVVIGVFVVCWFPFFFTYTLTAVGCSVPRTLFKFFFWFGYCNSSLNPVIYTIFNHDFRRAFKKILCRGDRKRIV
Assay: functional α2A adrenergic receptor antagonism assay in CHO cells (morphological response, versus agonist UK-14304)
Assay type: cell-based
Details: for inhibition at 10 µM: CHO, 100 minus % maximum agonist activity; for % Maximum Agonist Activity (percentage of maximum agonist activity induced by UK-14304): CHO cells expressing human α2A receptor, reading 6 minutes after addition
Description: The functional α2A adrenergic receptor antagonism assay was carried out in a platform in which the morphological response of CHO (Chinese hamster ovary) cells expressing α2A receptors was assessed. The functional assay was performed using as test items the (R)-pirlindole and the (rac)-pirlindole.
The CHO cells, expressing the human α2A adrenergic receptor were plated the day before the experiment in an adequate culture medium. The compounds were added to the wells and readings were taken 6 minutes later. Responses from the samples were compared to control responses to assess agonist or antagonist activity. The percentage of maximal activity (% Maximum Activity) translates the percentage of agonist activity induced by the α2A agonist, UK-14304 (5-Bromo-N-(2-imidazolin-2-yl)-6-quinoxalinamine, 5-Bromo-N-(4,5-dihydro-1H-imidazol-2-yl)-6-quinoxalinamine, brimonidine) commercialized by the company Sigma-Aldrich.

| inhibition at 10 µM (test compound 10 μM) [%] | % Maximum Agonist Activity (percentage of maximum agonist activity induced by UK-14304) (test compound 1 μM) [%] | % Maximum Agonist Activity (percentage of maximum agonist activity induced by UK-14304) (test compound 5 μM) [%] | % Maximum Agonist Activity (percentage of maximum agonist activity induced by UK-14304) (test compound 10 μM) [%] | antagonist activity on α2A adrenergic receptors, times less than (R)-pirlindole (10 μM, ratio of inhibition versus (R)-pirlindole) [times] | Structure (SMILES) |
| --- | --- | --- | --- | --- | --- |
| 40.3 | 107.76 | 87.37 | 59.72 | – | Cc1ccc2c(c1)c1c3n2CCN[C@@H]3CCC1 [(R)-pirlindole] |
| 11 | 98.47 | 96.50 | 89.02 | ~4 | Cc1ccc2c(c1)c1c3n2CCNC3CCC1 (racemic) [(rac)-pirlindole, 2,3,3a,4,5,6-hexahydro-8 methyl-1H-pyrazino [3,2,1-j, k] carbazole] |

— patent US10533012B2, “(R)-pirlindole and its pharmaceutically acceptable salts for use in medicine” (TECNIMEDE SOCIEDADE TECNICO-MEDICINAL S.A., priority 2014, dated 2020)
